Laboratory results published in patent publication US20110217293A1, “Uses of morelloflavone” (priority 2008, published 2011).
Entries after “also recorded” stand apart in the source; their conditions may differ.

Experiments:
[1] = system: vascular smooth muscle cells; assay: Lamellipodium formation assay; type: cell-based, mouse; set-up: effect on morphology of vascular smooth muscle cells: dose or concentration left out as unconfirmed; details: for lamellipodium index: 5% serum, 3 hrs
Experimental: (§1) Mouse vascular smooth muscle cells, isolated as described (13), were maintained in 231 media (Cascade Biologics, Portland, Oreg.) supplemented with SMGS (Cascade Biologics) in a humidified incubator at 37° C. with 5% CO2. Cells from passages 4-9 were used in all experiments. All experiments were performed in subconfluent, unsynchronized cells growing in SMGS except for the lamellipodium formation assay.
The lamellipodium formation assay was performed as described (14). In brief, mouse vascular smooth muscle cells (serum-starved for 24 hrs) were seeded onto fibronectin-coated wells of chamber slides (CultureSlide, BD BioCoat Fibronectin) and incubated with various concentrations of morelloflavone (0, 1, and 10 mM) in the presence or absence of serum for 3 hrs at 37° C. Then, cells were fixed with 4% paraformaldehyde, permeabilized with 0.1% Triton X-100, stained with Alexa Fluor 594-Phallidin (Invitrogen-Molecular Probes) and DRAQ5 (Biostatus, Ltd, Leicestershire, UK), and viewed with the use of a Leica DM6000 confocal microscope. Lamellipodium indices were calculated as the number of lamellipodia divided by the total number of cells counted.

[2] = system: vascular smooth muscle cells; assay: Cell attachment; type: cell-based
[3] = system: Rac1; assay: GTPase activation assay, Rac1; type: cell-based, mouse; details: up to 10 mM
Experimental: To assess the phosphorlyation status of ERK, […] of whole cell lysates was loaded onto SDS-PAGE, and Western blot analysis was done using anti-p-ERK (Santa Cruz; E-4; sc-7383) and anti-ERK (Santa Cruz; K-23; sc-94) antibodies. To detect active RhoA, Rac1 and Cdc42, generated GST-tagged RhoA binding domain of Rhotekin protein (GST-Rhotekin-RBD) and GST-tagged p21-binding domain of p21-activated kinase 1 (PAK1)(GST-PAK1-PBD) were first generated. Briefly, E. coli BL21 cells transformed with pGEX4T-PAK1-PBD or pGEX4T-Rh,otekin-RBD were grown at 37° C. and expression of recombinant protein was induced by addition of 0.1 mM IPTG for 3 hours. Cells were resuspended in lysis buffer (50 mM Tris-HCl, pH 8.0, 10% glycerol, 20% sucrose, 2 mM DTT, 1 mg/ml leupeptin, 1 mg/ml pepstatin, and 1 mg/ml aprotinin), sonicated, and centrifuged at 4° C. for 30 min at 45,000 g. The supernatant was incubated with glutathione sepharose 4B beads (GE-Amersham, Piscataway, N.J.) for 1 hour at 4° C., and then washed 3 times in lysis buffer. Using these GST-proteins, GTPase activation assays were performed as described. […]

[4] = Body weight in carotid artery injury study; type: in vivo, mouse; details: apoE−/− mice
Experimental: The carotid artery injury assay was performed as described by Kuhel (16). Male apoE−/− mice were obtained from Jackson Laboratory (Bar Harbor, Me.) and maintained on a 12 hour light/dark cycle. All animal experimentation protocols were performed under institutional guidelines of animal welfare, in accordance with NIH guidelines. Mice were fed either normal rodent chow diet (5001, LabDiet) (n=10) or normal chow diet containing 0.15% morelloflavone (w/w) (n=9). This diet corresponded to 200 mg/kg morelloflavone if a 30 gm mouse consumes 4 grams of chow. Mice were placed on these diets for 7 days before they underwent carotid artery denudation by the insertion of an epoxy resin (Epon) probe as described (16).

[5] = Body weight in atherosclerosis study; type: in vivo, mouse
Experimental: Twenty four (24) 8 week old Ldlr^−/−Apobec1^−/− mice were randomly assigned to either control group (normal rodent chow, Lab Diet, Richmond, Ind., N=12) or morelloflavone group (normal rodent chow supplemented with 0.003% (w/w) morelloflavone, N=12). The 0.003% (w/w) morelloflavone corresponds to approximately 4 mg/kg morelloflavone for 30 gram animals that consume 4 grams of chow. Animals were housed individually in an air-conditioned room with 12-h light/dark cycle with access to food and water. Body weight of these mice was monitored monthly. After 8 months, animals were sacrificed for analyses of atherosclerosis. Just prior to the sacrifice, blood was sampled from the heart and collected into micro-centrifuge tubes containing EDTA. The entire aortae were excised. All animal experimentation protocols were performed according to the protocol approved by the Institutional Animal Care and Use Committee (IACUC) of the University of Texas Health Science Center at Houston, in accordance with the National Institutes of Health guidelines.

[6] = system: ERK; assay: Western blot, phosphorylation of ERK; type: cell-based, mouse; details: low concentrations (0.1 & 1 mM)
Experimental: To assess the phosphorlyation status of ERK, […] of whole cell lysates was loaded onto SDS-PAGE, and Western blot analysis was done using anti-p-ERK (Santa Cruz; E-4; sc-7383) and anti-ERK (Santa Cruz; K-23; sc-94) antibodies. To detect active RhoA, Rac1 and Cdc42, generated GST-tagged RhoA binding domain of Rhotekin protein (GST-Rhotekin-RBD) and GST-tagged p21-binding domain of p21-activated kinase 1 (PAK1)(GST-PAK1-PBD) were first generated. Briefly, E. coli BL21 cells transformed with pGEX4T-PAK1-PBD or pGEX4T-Rh,otekin-RBD were grown at 37° C. and expression of recombinant protein was induced by addition of 0.1 mM IPTG for 3 hours. Cells were resuspended in lysis buffer (50 mM Tris-HCl, pH 8.0, 10% glycerol, 20% sucrose, 2 mM DTT, 1 mg/ml leupeptin, 1 mg/ml pepstatin, and 1 mg/ml aprotinin), sonicated, and centrifuged at 4° C. for 30 min at 45,000 g. The supernatant was incubated with glutathione sepharose 4B beads (GE-Amersham, Piscataway, N.J.) for 1 hour at 4° C., and then washed 3 times in lysis buffer. Using these GST-proteins, GTPase activation assays were performed as described.

[7] = system: vascular smooth muscle cells; assay: DNA fragmentation (apoptosis) assay; type: cell-based
Experimental: as §1
Vascular smooth muscle cells were seeded at 1×10^5 cells per well in 24-well culture plates, treated with morelloflavone, and subjected to DNA fragmentation assay, according to the manufacturer's instructions (Cell Death Detection ELISAPLUS, Roche). Briefly, the cells were treated with […] of morelloflavone for 24 hrs. The 1×10^5 cells were lysed, cleared by centrifugation, and transferred into streptavidin-coated plates. Anti-histone antibody conjugated to biotin and anti-nucleosomal-DNA-antibody conjugated to horseradish peroxidase were added. After incubation and washing, 2,2′-azino-bis-[3-ethylbenzthiazoline-6-sulfonic acid] (ABTS) substrate solution was added. The 5 absorbance rate at 405 nm against ABTS solution was measured with the reference wavelength of 490 nm.

For `O=C1c2c(O)cc(O)cc2O[C@H](c2ccc(O)cc2)[C@H]1c1c(O)cc(O)c2c(=O)cc(-c3ccc(O)c(O)c3)oc12` [morelloflavone, 5,7, 4′, 5″, 7″, 3″, 4″-heptahydroxy-[3,8″]-flavonylflavanone], the lamellipodium index ([1]; 1 mM morelloflavone) was 0.05±0.001, the lamellipodium index ([1]; 10 mM morelloflavone) was 0.033±0.006 and the “effect on morphology of vascular smooth muscle cells” value ([1]; absence of serum, any concentration (0, 1)) was “did not change the morphology”. The “effect on lamellipodium indices / formation” value ([1]; serum stimulated, 1-10 mM) was “significantly decreased lamellipodium indices in a dose-dependent fashion; also recorded: failed to increase lamellipodium indices; also recorded: blocks”, the “effect on cell attachment” value [2] was “does not affect cell attachment” and the “activation of Rac1” value [3] was “no significant effect; also recorded: without affecting”. It also gave a Body weight ([4]; at the time of sacrifice) of 23.3 ± 1.5 g, a Body weight ([4]; before injury) of 24.0 ± 2.0 g and a Body weight ([5]; 1 month) of 22.6 ± 1.5 gm. For the same compound, the Body weight ([5]; 2 months) was 24.0 ± 1.6 gm, the Body weight ([5]; 3 months) was 25.4 ± 1.5 gm and the Body weight ([5]; 4 months) was 26.2 ± 1.5 gm. It also gave a Body weight ([5]; 5 months) of 26.8 ± 1.3 gm, a Body weight ([5]; 6 months) of 27.5 ± 1.7 gm and a Body weight ([5]; 7 months) of 28.2 ± 2.5 gm. For the same compound, the Body weight ([5]; Final (8 months)) was 28.4±2.3 gm, the Body weight ([5]; Final (8 months), listed as Morelloflavone) was 28.4 ± 2.3 gm and the Body weight ([5]; Initial (0 month), Ldlr−/−Apobec1−/− mice, N = 12) was 22.3 ± 1.4 gm. The “phosphorylation of ERK” value [6] was “inhibited; also recorded: robustly decreased phosphorylation; also recorded: blocks”, the “DNA fragmentation indices, trend with concentration” value ([7]; 0, 1, 10, 100 mM) was “decreased as morelloflavone concentrations increased” and the “apoptosis / induction of DNA fragmentation” value ([7]; concentrations equal to or less than 100 mM, 24 hrs) was “did not induce DNA fragmentation; also recorded: does not cause apoptosis; also recorded: does not induce cytotoxicity”.
